Assay: in vivo study of the concentration of acetaminophen in plasma and in interstitial fluid over time (FIG. 8)
Text: FIG. 8 illustrates an in vivo study of the concentration of acetaminophen in plasma and in interstitial fluid over time;
FIG. 8 further illustrates acetaminophen measured in concentration in vivo in plasma, at line 82, and in interstitial fluid, at line 84.

measured acetaminophen concentration in interstitial fluid compared with plasma: less than that of plasma | time acetaminophen is present in interstitial fluid (interstitial fluid): over six | time acetaminophen is present in plasma (plasma): over six
Compound: CC(=O)Nc1ccc(O)cc1 [acetaminophen]
